Experiments:
Human LDL = test: Cu++-mediated oxidation of LDL, TBARS (Example 9); details: 5 μM CuCl2, 10-250 μM compound, 5 hours, 37° C.
Experimental: The ability of the LR compounds to inhibit lipid peroxidation was tested using Cu^++-mediated lipid oxidation, a common in vitro model for studies on lipoxidative modifications of proteins. The effects of the LR compounds on lipid peroxidation were studied using Cu^++-mediated oxidation of LDL. Human LDL (50 μg of protein/mL) was incubated at 37° C. in chelex-treated PBS buffer alone or in the presence of 5 μM CuCl2 or 5 μM CuCl2 plus various concentrations of the inhibitor compounds (10-250 μM). After 5 hours of incubation, the amount of thiobarbituric acid reactive substances (expressed as malondialdehyde (MDA) equivalents) generated in the reaction mixture was calculated according to methods described by Dillon et al., Life Sci. #72:1583-1594, 2003. Briefly, aliquots from each sample were precipitated with 20% trichloroacetic acid, centrifuged and an equal volume of 1% thiobarbituric acid was added to the supernatant. The samples then were heated to 95° C. for 10 minutes, and upon cooling, the absorbance was read at 532 nm. Hydrolyzed tetraethoxypropane was used as a standard for the MDA equivalent calculation.

STZ-Diabetic Rats [1] = test: Renal parameters in STZ-diabetic rats treated with LR-9 or LR-74 (Example 10); format: in vivo, rat; details: for Kidney/Body wt. Ratio / Plasma Creatinine / Urinary Albumin: 50 mg/L in drinking water, 32 weeks; for decrease of elevated plasma creatinine concentrations: diabetic rats
Experimental: Diabetes was induced in male Sprague-Dawley rats by a single i.p. injection of STZ (65 mg/kg in citrate buffer, pH 4.5) after an overnight fast. Non-diabetic animals were injected with citrate buffer only. One week after STZ injection, only animals with >20 mmol/L plasma glucose were classified as diabetic and included in the study. Diabetic rats were divided randomly into the following treatment groups: diabetic untreated (D); and two diabetic treatment groups, receiving either LR-9 (D+LR-9) or LR-74 (D+LR-74) at 50 mg/L in drinking water. Three non-diabetic groups were studied concurrently: one untreated non-diabetic group (ND), and two non-diabetic groups treated with either LR-9 (ND+LR-9) or LR-74 (ND+LR-74) at 50 mg/L in drinking water.
Both plasma glucose and body weight were checked before administration of the drug, and no differences were detected among the three diabetic treatment groups or among the three non-diabetic groups. All animals were housed individually and were given free access to food and water. Glycemic control and body weights were monitored periodically. To limit hyperglycemia and ensure that animals maintained body weight, diabetic animals received 3 IU of ultralente insulin two to three times per week. The study was carried out over 32 weeks. Progression of renal dysfunction was assessed by measuring urinary albumin and plasma creatinine concentrations according to known methods. Figarola et al., Diabetologia 46:1140-115, 2003.

STZ-Diabetic Rats [2] = test: AGEs/ALEs (CML, CEL) in skin collagen by LC-ESI/MS/MS (Example 12); format: in vivo, rat
Experimental: Tail tendon collagen was isolated from each rat in Example 11 and the degree of AGE formation in collagen was assessed by measurement of fluorescent AGE after enzymatic digestion. Figarola et al., Diabetologia 46:1140-115, 2003. Skin collagen isolation and reduction was performed as described in Shaw et al., Methods Mol. Biol. 186:129-137, 2002. Levels of AGEs/ALEs were normalized to the lysine content of the collagen samples.
Ion-pair reversed-phase liquid chromatography/tandem mass spectroscopy analysis was performed using an Agilent Technologies™ LC1100 series system interfaced to a Micromass Quatro™ Ultima Triple Quadripole Mass Spectrometer. HPLC separation was achieved using a Phenomenex Synergi™ Hydro-RP […] 80A 150×2.0 mm column preceded by a Phenomenex C18 guard column. The column temperature was maintained at 25° C. and the flow was 0.2 mL/minute. The isocratic mobile phase consisted of 10% acetonitrile and 0.1% heptafluorobutyric acid in water. Total run time was 12 minutes; injection volume was 20 μL. The autoinjector temperature was 5° C. The electrospray ionization source of the mass spectrophotometer was operated in the positive ion mode with a cone gas flow of 190 L/hour and desolvation gas flow of 550 L/hour. The capillary voltage was set to 2.7 kV. Cone and collision cell voltages were optimized to 25 V and 13 eV for CML, 33 V and 12 eV d4CML, 24 V and 14 eV for CEL, […] and 14 eV for D8CEL, and […] and 16 eV for lysine, respectively. […] The desolvation temperature was increased to 300° C., and the solvent delay program was used from 0 to 3 minutes and 10 to 12 minutes. The fragmentation of these compounds can be induced under collision dissociation conditions and acidic mobile phase. The precursor→product ion combinations at m/z were 205.1→130.11 for CML, 209.12→134.12 for d4CML, 219.11→130.11 for CEL, 227.18→138.16 for d8CEL, 147.15→84.21 for lysine and 151.27→88.33 for DL-d4Lysine were used in multiple reaction monitoring (MRM) mode to determine these compounds. MassLynx™ version 3.5 software was used for data acquisition and processing.
All solutions of standards and internal standards were prepared in water. Standard solution containing both CML and CEL were prepared at six concentrations: 4, 10, 20, 40, 100 and 200 pmol/mL for CML and 2, 5, 10, 20, 50 and 100 pmol/mL for CEL. Quality control solutions were prepared at two concentrations: 7.5 and 150 pmol/mL for CML and 3.75 and 75 pmol/mL for CEL. A stock solution of heavy-labeled internal standards (d4CML and d8CEL) was prepared at 800 pmol/mL. For generation of a standard curve, 130 μL of standard solution was freshly mixed with 10 μL 0.1 M ammonium bicarbonate, 10 μL 0.05% HFBA and 10 μL internal standard stock solution to give a caliber. […]

Compound | inhibition of Cu++-mediated LDL oxidation (lipid peroxidation) (Human LDL) | Kidney/Body wt. Ratio (STZ-Diabetic Rats [1]; diabetic (D) rats) | Plasma Creatinine (STZ-Diabetic Rats [1]; diabetic (D) rats) | Urinary Albumin (STZ-Diabetic Rats [1]; diabetic (D) rats) | decrease of elevated plasma creatinine concentrations (STZ-Diabetic Rats [1]) | Kidney/Body wt. Ratio (STZ-Diabetic Rats [1]; non-diabetic (ND) rats) | Plasma Creatinine (STZ-Diabetic Rats [1]; non-diabetic (ND) rats) | Urinary Albumin (STZ-Diabetic Rats [1]; non-diabetic (ND) rats) | CEL concentration in skin collagen (STZ-Diabetic Rats [2]) | CML concentration in skin collagen (STZ-Diabetic Rats [2])
methylene bis(4,4′-(2-chlorophenylureidophenoxyisobutyric acid) [LR-90] | better than AG |  |  |  |  |  |  |  |  | 
CC(C)(Oc1ccc(NC(=O)c2ccc3ccccc3c2)cc1)C(=O)O [LR-9, 4-(2-napthylcarboxamido) phenoxyisobutyric acid] |  | 1.58 ± 0.11 g/100 g | 1.79 ± 0.39 mg/dL | 18.0 ± 3.7 mg/42 hr | ~50% | 0.51 ± 0.01 g/100 g | 0.42 ± 0.02 mg/dL | 4.8 ± 1.2 mg/42 hr | significantly limited the increase | significantly limited the increase
CC(Oc1cccc2cccnc12)C(=O)O (centres unmarked) [LR-74, 2-(8-quinolinoxy) propionic acid] | better than AG | 1.52 ± 0.10 g/100 g | 1.64 ± 0.44 mg/dL | 14.3 ± 3.7 mg/42 hr | ~50% | 0.52 ± 0.01 g/100 g | 0.42 ± 0.03 mg/dL | 4.6 ± 1.2 mg/42 hr | significantly limited the increase | significantly limited the increase

— patent US7652037B2, “Methods of lowering lipid levels in a mammal” (City Of Hope, priority 2003, dated 2010)
